Experimental data reported in article PMC3479967 (Evidence-based Complementary and Alternative Medicine : eCAM, 2012).
Read-outs that look alike come from different tables or passages of the source.

Target: T1, UGT1A4 (Homo sapiens, UniProt P22310)
T1 construct: purchased BD Gentest Corp. (Woburn, MA, USA); host or cells: baculovirus-infected insect cells
T1 sequence (P22310 29-534): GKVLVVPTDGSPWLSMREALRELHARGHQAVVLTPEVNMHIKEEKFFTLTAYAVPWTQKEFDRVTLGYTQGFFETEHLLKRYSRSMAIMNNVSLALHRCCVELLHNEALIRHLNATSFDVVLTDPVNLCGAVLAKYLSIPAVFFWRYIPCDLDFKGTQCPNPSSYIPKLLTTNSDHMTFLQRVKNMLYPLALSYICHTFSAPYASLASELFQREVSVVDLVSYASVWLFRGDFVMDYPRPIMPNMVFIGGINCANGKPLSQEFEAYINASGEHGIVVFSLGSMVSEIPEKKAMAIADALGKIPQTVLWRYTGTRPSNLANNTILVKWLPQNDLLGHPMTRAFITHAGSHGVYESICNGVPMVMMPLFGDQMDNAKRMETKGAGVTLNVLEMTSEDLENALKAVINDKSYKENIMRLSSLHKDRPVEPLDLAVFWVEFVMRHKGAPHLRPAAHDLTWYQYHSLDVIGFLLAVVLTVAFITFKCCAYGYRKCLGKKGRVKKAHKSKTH
Assay: Inhibition of recombinant UGT1A4 activity (TFP glucuronidation)
Type: biochemical
Description: TFP was used as the substrate for UGT1A4. Trifluoperazine glucuronide (TFPG) formation was measured using a modification of the method reported. […] Reactions were initiated by the addition of UDPGA and incubations were performed at 37°C in a shaking water bath for 20 min. Incubations were terminated by the addition of 4% acetic acid/96% methanol (0.2 mL) and then centrifuged at 20,500 ×g for 15 min. A 40 μL aliquot of the supernatant fraction was injected into the HPLC column. […] A gradient mobile phase consisting initially of 30 : 70, mobile phase A (acetonitrile) verse mobile phase B (0.5% formic acid/water) was brought to a composition of 90 : 10 in 10 min which was held for 7 min, all at a flow rate of 1 mL/min. Column eluant was monitored by UV absorbance 256 nm. […] The negative controls are the incubation without UDPGA.

[1] = recombinant human UGT1A4, 50 μM TFP, mean ± SD, read-out: IC50 for inhibition of UGT1A4 activity

IC50	SMILES	IC50 [1]
> 100 µM	COc1ccc(-c2oc3c(CC=C(C)C)c(O)cc(O)c3c(=O)c2O)cc1 [Icaritin]	–
–	COc1ccc(-c2oc3c(CC=C(C)C)c(O[C@@H]4O[C@H](CO)[C@@H](O)[C@H](O)[C@H]4O)cc(O)c3c(=O)c2O)cc1 [Icariside I]	> 100 µM
–	COc1ccc(-c2oc3c(CC=C(C)C)c(O[C@@H]4O[C@H](CO)[C@@H](O)[C@H](O)[C@H]4O)cc(O)c3c(=O)c2O[C@@H]2O[C@@H](C)[C@H](O)[C@@H](O)[C@H]2O)cc1 [Icariin]	42.8 ± 2.4 µM
